From patent EP0558960A1, “Medicament for the prophylaxis and treatment of the neurologic and psychiatric disorders caused by alcohol abuse, which contains thiamine, folic acid and cobalamine” (priority 1992, dated 1993)

How the values were obtained:
[1] = Thiamine levels in plasma and erythrocytes after oral administration of the medicament with Benfotiamin; type: in vivo; conditions: comparator not printed in b22 (Thiaminhydrochlorid)
[2] = Availability and passage of the blood-brain barrier, Benfotiamin compared with Thiaminhydrochlorid; type: in vivo
[3] = in contrast to Thiaminhydrochlorid

- höhere Anstiege von Thiamin und Thiamindiphosphat-coenzymen in den Erythrozyten [1]: ca. 130 -fach
- höhere Plasmaspiegel an Thiamin [1]: 10 -fach
- Verfügbarkeit ([2]; compared with Thiaminhydrochlorid): besser verfügbar als Thiaminhydrochlorid
- Blut-Hirn-Schranke [2, 3]: passiert
- Liquor cerebrospinalis [2, 3]: anreichert
SMILES: CC(=C(CCOP(=O)(O)O)SC(=O)c1ccccc1)N(C=O)Cc1cnc(C)nc1N [Benfotiamin]
